From the NIST ThermoML archive (doi:10.1021/acs.jced.8b00547)

Legend:
[1] = refractive index (Na D-line) (dimensionless); xn = mol fraction of the nth substance listed; conditions: 101 kPa, Liquid, Standard Abbe refractometry
[2] = xn = mol fraction of the nth substance listed; conditions: 101 kPa, Liquid; for speed of sound: Single path-length method; for mass density: Vibrating tube method

CCCC(C)=O [pentan-2-one] + CC(C)O
Conditions | mass density, [2] [kg/m3] | refractive index, [1] | speed of sound, [2] [m/s]
298.15 K, x1 = 0.0978 | 782.98 | 1.3767 | 1146.5
298.15 K, x1 = 0.2344 | 785.78 | 1.3786 | 1157.5
298.15 K, x1 = 0.3338 | 787.81 | 1.37996 | 1165.5
298.15 K, x1 = 0.4126 | 789.5 | 1.38098 | 1171.7
298.15 K, x1 = 0.4972 | 791.25 | 1.38207 | 1178.4
298.15 K, x1 = 0.6036 | 793.49 | 1.3834 | 1186.6
298.15 K, x1 = 0.7125 | 795.82 | 1.38472 | 1195
298.15 K, x1 = 0.8043 | 797.8 | 1.3858 | 1202
298.15 K, x1 = 0.9009 | 799.87 | 1.3869 | 1209.1
298.15 K, x1 = 1 | 802.09 | 1.38782 | 1216
308.15 K, x1 = 0.0978 | 774.13 | 1.3723 | 1110.6
308.15 K, x1 = 0.2344 | 776.72 | 1.37412 | 1120.8
308.15 K, x1 = 0.3338 | 778.65 | 1.3754 | 1128.1
308.15 K, x1 = 0.4126 | 780.23 | 1.37637 | 1133.8
308.15 K, x1 = 0.4972 | 781.85 | 1.37741 | 1139.9
308.15 K, x1 = 0.6036 | 783.93 | 1.37867 | 1147.5
308.15 K, x1 = 0.7125 | 786.12 | 1.37993 | 1155.2
308.15 K, x1 = 0.8043 | 788.05 | 1.38098 | 1161.6
308.15 K, x1 = 0.9009 | 790.07 | 1.382 | 1168.2
308.15 K, x1 = 1 | 792.32 | 1.38284 | 1174.4
318.15 K, x1 = 0.0978 | 764.87 | 1.3677 | 1074.9
318.15 K, x1 = 0.2344 | 767.32 | 1.36948 | 1084.2
318.15 K, x1 = 0.3338 | 769.16 | 1.37072 | 1090.9
318.15 K, x1 = 0.4126 | 770.69 | 1.37167 | 1096.1
318.15 K, x1 = 0.4972 | 772.19 | 1.37268 | 1101.7
318.15 K, x1 = 0.6036 | 774.18 | 1.3739 | 1108.7
318.15 K, x1 = 0.7125 | 776.29 | 1.37511 | 1115.7
318.15 K, x1 = 0.8043 | 778.16 | 1.3761 | 1121.5
318.15 K, x1 = 0.9009 | 780.17 | 1.37708 | 1127.6
318.15 K, x1 = 1 | 782.44 | 1.37782 | 1133.3
328.15 K, x1 = 0.0978 | 755.34 | 1.36295 | 1039
328.15 K, x1 = 0.2344 | 757.63 | 1.36471 | 1047.7
328.15 K, x1 = 0.3338 | 759.42 | 1.36591 | 1054
328.15 K, x1 = 0.4126 | 760.87 | 1.36686 | 1058.8
328.15 K, x1 = 0.4972 | 762.28 | 1.36785 | 1064.1
328.15 K, x1 = 0.6036 | 764.21 | 1.36905 | 1070.6
328.15 K, x1 = 0.7125 | 766.2 | 1.37023 | 1077.2
328.15 K, x1 = 0.8043 | 768.09 | 1.3712 | 1082.6
328.15 K, x1 = 0.9009 | 770.12 | 1.37215 | 1088.3
328.15 K, x1 = 1 | 772.43 | 1.3728 | 1093.6
338.15 K, x1 = 0.0978 | 744.73 | 1.3579 | 1003.3
338.15 K, x1 = 0.2344 | 746.99 | 1.35966 | 1011.5
338.15 K, x1 = 0.3338 | 748.79 | 1.36085 | 1017.3
338.15 K, x1 = 0.4126 | 750.28 | 1.36181 | 1021.8
338.15 K, x1 = 0.4972 | 751.71 | 1.3628 | 1026.7
338.15 K, x1 = 0.6036 | 753.67 | 1.36398 | 1032.7
338.15 K, x1 = 0.7125 | 755.74 | 1.36515 | 1038.8
338.15 K, x1 = 0.8043 | 757.71 | 1.36612 | 1043.8
338.15 K, x1 = 0.9009 | 759.83 | 1.36705 | 1049
338.15 K, x1 = 1 | 762.27 | 1.36764 | 1053.8
